The source of these data is patent US20090280106A1, “Pituitary adenylate cyclase acivating peptide (pacap) receptor (vpac2) agonists and their pharmacological methods of use” (Bayer Pharmaceuticals Corporation, priority 2005, published 2009).

Data set [1] addresses T1, DPPIV (Homo sapiens, UniProt P27487). Conditions: longer time points. Here is the method:
The formulations described in Example 4 are placed in constant stability chamber. Peptides are also analyzed for stability to degradation in solutions of DPPIV and in plasma. Samples are removed periodically for analysis by capillary electrophoresis, mass spectrometry, Edman degradation, ELISA, and assays of peptide activity, which are sensitive methods to detect degradation of peptide. The area of various peaks is summed and the area for peak of the parent peptide is divided by the total peak area. The quotient is the % purity. Since there are impurities present in the fresh peptide, the purity change is normalized by dividing the purity at different time point by the initial purity. For stability to DPPIV and plasma, peptides at 20 pmol/μl were incubated at 37° C. in the presence of 300 pM DPPIV in 100 mM HEPES, pH 7.4. At various timepoints, the reaction (2 μl aliquot) is terminated by addition of 1 μM DPPIV inhibitor and freezing. For MALDI mass spectrometric analysis, T=0 hr, 1 hr, 5 hr, and 24 hr timepoints are evaluated. The results are plotted as percent intact peptide or peptide derivative as compared to degradation products.

In data set [2] the target is T1, DPPIV. The conditions noted are these: cited from earlier work.

T1 sequence (P27487 whole entry, species assumed): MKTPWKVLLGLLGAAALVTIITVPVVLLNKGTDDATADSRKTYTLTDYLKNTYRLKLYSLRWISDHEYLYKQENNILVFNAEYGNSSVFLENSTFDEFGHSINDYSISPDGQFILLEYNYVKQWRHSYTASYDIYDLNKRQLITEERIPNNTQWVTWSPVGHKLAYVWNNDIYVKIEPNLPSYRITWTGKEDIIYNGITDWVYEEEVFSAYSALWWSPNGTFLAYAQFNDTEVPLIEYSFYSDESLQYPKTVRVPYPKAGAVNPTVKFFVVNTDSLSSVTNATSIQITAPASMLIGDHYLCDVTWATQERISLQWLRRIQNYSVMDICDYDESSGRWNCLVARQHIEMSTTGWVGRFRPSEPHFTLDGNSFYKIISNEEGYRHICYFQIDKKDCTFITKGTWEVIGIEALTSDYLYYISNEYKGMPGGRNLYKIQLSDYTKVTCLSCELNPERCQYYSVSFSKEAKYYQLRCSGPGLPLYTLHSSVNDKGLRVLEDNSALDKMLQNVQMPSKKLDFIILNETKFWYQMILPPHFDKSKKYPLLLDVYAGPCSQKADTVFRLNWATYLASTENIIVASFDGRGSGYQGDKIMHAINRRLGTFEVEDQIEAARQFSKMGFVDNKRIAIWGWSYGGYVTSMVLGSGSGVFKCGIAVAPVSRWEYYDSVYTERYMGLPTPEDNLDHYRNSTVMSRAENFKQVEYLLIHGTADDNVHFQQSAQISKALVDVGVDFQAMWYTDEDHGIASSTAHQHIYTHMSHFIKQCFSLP

On to `CC[C@H](C)[C@H](NC(=O)CNC(=O)[C@H](CC(=O)O)NC(=O)[C@H](CO)NC(=O)[C@@H](N)Cc1cnc[nH]1)C(=O)N[C@@H](Cc1ccccc1)C(=O)N[C@H](C(=O)N[C@@H](CC(=O)O)C(=O)N[C@@H](CO)C(=O)N[C@@H](Cc1ccc(O)cc1)C(=O)N[C@@H](CO)C(=O)N[C@@H](CCCNC(=N)N)C(=O)N[C@@H](Cc1ccc(O)cc1)C(=O)N[C@@H](CCCNC(=N)N)C(=O)N[C@@H](CCCCN)C(=O)N[C@@H](CCC(N)=O)C(=O)N[C@@H](CCSC)C(=O)N[C@@H](C)C(=O)N[C@H](C(=O)N[C@@H](CCCCN)C(=O)N[C@@H](CCCCN)C(=O)N[C@@H](Cc1ccc(O)cc1)C(=O)N[C@@H](CC(C)C)C(=O)N[C@@H](C)C(=O)N[C@@H](C)C(=O)N[C@H](C(=O)N[C@@H](CC(C)C)C(N)=O)C(C)C)C(C)C)[C@@H](C)O` [PACAP27], for which, on DPPIV [1], the “cleavage by DPPIV” value is recorded as “cleaved at longer time points”. Further, at DPPIV [2], the “cleavage by DPPIV as reported (Zhu, et al., J. Biol. Chem. 278: 22418-22423, 2003)” value was “resistant to cleavage”.
In the case of `CC[C@H](C)[C@H](NC(=O)[C@H](CO)NC(=O)[C@H](CC(N)=O)NC(=O)[C@H](CC(C)C)NC(=O)[C@H](Cc1ccc(O)cc1)NC(=O)[C@H](CCCCN)NC(=O)[C@H](CCCCN)NC(=O)[C@@H](NC(=O)[C@H](C)NC(=O)[C@H](CCSC)NC(=O)[C@H](CCC(N)=O)NC(=O)[C@H](CCCCN)NC(=O)[C@H](CCCN=C(N)N)NC(=O)[C@H](CC(C)C)NC(=O)[C@H](CCCN=C(N)N)NC(=O)[C@@H](NC(=O)[C@H](Cc1ccc(O)cc1)NC(=O)[C@H](CC(N)=O)NC(=O)[C@H](CC(=O)O)NC(=O)[C@@H](NC(=O)[C@H](Cc1ccccc1)NC(=O)[C@@H](NC(=O)[C@H](C)NC(=O)[C@H](CC(=O)O)NC(=O)[C@H](CO)NC(=O)[C@@H](N)Cc1c[nH]cn1)C(C)C)[C@@H](C)O)[C@@H](C)O)C(C)C)C(=O)N[C@@H](CC(C)C)C(=O)N[C@@H](CC(N)=O)C(N)=O` [VIP], at DPPIV [1], the “cleavage by DPPIV” value is listed as “cleaved at longer time points”. For the same molecule, the “cleavage by DPPIV as reported (Zhu, et al., J. Biol. Chem. 278: 22418-22423, 2003)” value at DPPIV [2] is reported as “resistant to cleavage”.
